Experimental data as given in patent US20220281860A1, “COMPOUNDS AND METHODS OF TREATING RNA-MEDIATED DISEASES” (Arrakis Therapeutics, Inc., priority 2016, published 2022).
Counter-ions that a name gives are not always drawn.

How the values were obtained:
[1] = test system: RNA3WJ_0.0.0_5IB_3FAM (3WJ_0.0.0_5IB_3FAM) RNA three way junction; assay: Thermal shift binding assay; settings: for Melt. Temp. with cmpd / Shift melt. Temp.: RNA sequence 3WJ_0.0.0_5IB_FAM; for Melt. Temp. with cmpd: melting temperature in presence of compound; for Shift melt. Temp.: melting temperature with cmpd minus without cmpd
Source text: (§1) Purpose: Test binding of compounds for RNA three way junction (for example, a construct of 38 nt). Thermal shift assay based on established fluorescence quenching assay utilizing FAM as fluorescence tag and Iowa Black as quencher. Tags were attached at the 3′ and 5′ end, respectively. Stable formation of 3WJ upon compound binding would lead to quenching of the FAM fluorescence due to close proximity of the Iowa Black tag. Thermal unfolding leads to increase of fluorescence emission. Assay readout: FAM (465-510 nm) Thermal Shift.
(§2) Assay sample buffer used: 10 mM CacoK pH 7.2, 30 mM NaCl. Buffer preparation in Dnase/Rnase Free distilled water (Gibco Life Technologies).
(§3) Tool compounds provided as dry powder are prepared as 50 mM stock solution in 100% d6-DMSO. Stock solutions of 50 mM concentration in d6-DMSO are stored at RT.
(§4) Sample plate: Roche, Light Cycler480 Multiwell Plate96, white, REF 04729692001. (Dilution plate: Greiner REF 781101, PS-Microplate, 384 well, clear). Thermal Shift device: Roche, Light Cycler480.
(§5) Daily fresh (10 ml): 1 ml 100 mM CacoK pH 7.2 and 0.3 ml 1 M NaCl filled up to 10 ml with Dnase/Rnase Free distilled water.
(§6) Dilute the RNA 1:10 (final 10 μM) in Assay Buffer.
(§7) Heat up the diluted RNA up to 90° C. for 5 min (sealed Eppendorf Tube).
(§8) Cool down the RNA probe slowly to RT.
(§9) Dilute the compounds to 800 μM in DMSO (Assay: 8 μM).
(§10) 78.4 μL Assay Buffer are pipetted into Greiner REF 781101, PS-Microplate, 384 (each well needed).
(§11) Add 0.8 μL of the RNA-Solution ([…]).
(§12) Add 0.8 μL Compound-Solution ([…]).
(§13) Final concentrations in the sample: 1 μM RNA, 8 μM compound, 1% DMSO
(§14) Pipet 20 μL Sample Solution into Roche, Light Cycler480 Multiwell Plate96, white, REF 04729692001.
(§15) When sample transfer is finished, seal the plate with a clear topseal (part of REF 04729692001).
(§16) Centrifuge the plate with a table-top device to spin down the samples.
(§17) Measure the 96 plate with the LightCycler480 (Channel: 480/510 nm; Temperature: 41-91° C.).
(§18) Analyse measurement-data with the MeltingCurveGenotyping Mode.
(§19) Settings: Acquisition mode: continuous; Ramp rate: 0.1 C.°/sec; Acquisition: 6/C.° Melt Curve Genotyping for All Samples
(§20) Melting curves analysis show melting temperature (Tm) of ˜51° C. Range of RNA concentrations was tested and assay window was determined (conc. range of 0.5-1 μM yields best results). The choice of buffer also affected the Tm. RNA constructs were tested under different buffer conditions (especially in presence of salt) in the thermal shift assay. […] CacoK with 30 mM salt at 1 μM RNA conc. was used to assess compound effects on 3WJ stability. […] These conditions were used for screening test compounds.

[2] = test system: 3WJ_0.0.0_5IB_3FAM construct; assay: Fluorescence quenching binding assay; settings: at conc. >5 μM, FIG. 107
Description: This assay will be used to test binding of compounds for RNA three way junction (such as a 38 nt construct). This is a fluorescence quenching assay utilizing FAM as fluorescence tag and Iowa Black as quencher. Tags are attached at the 3′ and 5′ end, respectively. Stable formation of MW upon compound binding would lead to quenching of the FAM fluorescence due to close proximity of the Iowa Black tag. Assay readout: FAM (485-520 nm) Fluorescence Intensity.
as §2, §3
Sample plate: Greiner cat #784076, black, 384 (Dilution plate: Greiner REF 781101, PS-Microplate, 384 well, clear). Fluorescence Intensity device: Envision 1040285
Daily fresh (10 ml): 1 ml 100 mM CacoK pH 7.2 and 0.3 ml 1 M NaCl filled up to 10 ml with Dnase/Rnase Free distilled water
as §6
Heat up the diluted RNA up to 90° C. for 5 min (sealed Eppendorf Tube). […]
Calibration of the expected fluorescence signal at various RNA concentrations in either CacoK or NaPO4 buffers was performed first. Experiments in buffers containing salt show distinct fluorescence quenching behavior. […]

[3] = test system: RNA3WJ_1.0.0_5IB_3FAM (cis 3WJ with one unpaired nucleotide); assay: Thermal shift binding assay; settings: RNA3WJ_1.0.0_5IB 3FAM; RNA:ligand ratios 1:1, 1:3
Source text: as §1, §2, §3, §4, §5, §6, §7, §8, §9, §10, §11, §12, §13, §14, §15, §16, §17, §18, §19, §20
Compounds Ark0000013 and Ark0000014 were also tested in the thermal shift assay against three RNA 3WJ constructs, A) RNA3WJ_1.0.0_5IB_3FAM (cis 3WJ with one unpaired nucleotide); B) Split3WJ.1_up_5IB+Split3WJ.1_down_3FAM (trans 3WJ as 1:1 mix); and C) Split3WJ.2_up_5IB+Split3WJ.2_down_3FAM (trans 3WJ as 1:1 mix).

[4] = test system: RNA3WJ_0.0.0_5IB_3FAM (3WJ_0.0.0_5IB_3FAM) RNA three way junction; assay: Thermal shift binding assay; settings: RNA:ligand ratios 1:1, 1:3, raw and normalized data
[5] = test system: RNA3WJ_3.0.0_5IB_3FAM; assay: Thermal shift binding assay; settings: RNA:ligand ratios 1:1, 1:3
Source text: as §1, §2, §3, §4, §5, §6, §7, §8, §9, §10, §11
Add 0.8 μL Compound-Solution ([…]). […]
as §14, §15, §16, §17, §18, §19, §20

[6] = RNA3WJ_0.0.0_5IB_3FAM, 1 μM RNA, 8 μM compound, 1% DMSO, 10 mM CacoK pH 7.2, 30 mM NaCl

4-((2S,4S)-4-azido-2-(methyl(12-methyl-13-oxo-15-(2,7,15-tris(8-aminooctanamido)-9,10-[1,2]benzenoanthracen-9(10H)-yl)-3,6,9-trioxa-12-azapentadecyl)carbamoyl)pyrrolidine-1-carbonyl)benzenesulfonyl fluoride [ARK000032]
Temp. Shift [° C.] [1, 6]: +15.0 °C | Melt. Temp. with cmpd [1]: 75.1 °C | Shift melt. Temp. [1]: +15.0 °C

CC(C)(C)OC(=O)NCCCC[C@@H](NC(=O)OC(C)(C)C)C(=O)Nc1ccc2c(c1)C1(CCC(=O)NCCOCCOCCN)c3cc(NC(=O)[C@@H](CCCCNC(=O)OC(C)(C)C)NC(=O)OC(C)(C)C)ccc3C2c2ccc(NC(=O)[C@@H](CCCCNC(=O)OC(C)(C)C)NC(=O)OC(C)(C)C)cc21 [ARK000023]
Melt. Temp. with cmpd [1]: 60.7 °C | Shift melt. Temp. [1]: +0.6 °C

CN(CCOCCOCCN(C)C(=O)[C@@H]1C[C@H](N=[N+]=[N-])CN1C(=O)CCc1ccc(S(=O)(=O)F)cc1)C(=O)CCC12c3cc(NC(=O)CCCCCCCN)ccc3C(c3ccc(NC(=O)CCCCCCCN)cc31)c1ccc(NC(=O)CCCCCCCN)cc12 [ARK000028]
Melt. Temp. with cmpd [1]: 82.3 °C | Shift melt. Temp. [1]: +22.0 °C

[N-]=[N+]=NC[C@H]1O[C@H](O[C@@H]2[C@@H](O)[C@H](O[C@H]3O[C@H](CN)[C@@H](O)[C@H](O)[C@H]3O)[C@@H](N)C[C@H]2N)[C@H](O)[C@@H](N)[C@@H]1O [Ark000007, 6″-Azido-kanamycin A hydrochloride salt]
Melting temp [° C.] + cmpd [1, 6]: 65.6 °C | Temp. Shift [° C.] [1, 6]: ~5 °C | Concentration dependent influence on the fluorescence signal (quenching effect) [2]: increase of quenching effect

C#CCCCC(=O)NC[C@H]1O[C@H](O[C@H]2[C@H](O)[C@@H](O[C@H]3O[C@H](CO)[C@@H](O)[C@H](N)[C@H]3O)[C@H](N)C[C@@H]2N)[C@H](O)[C@@H](O)[C@@H]1O [Ark000008]
Effect on melting temperature (in words) ([1]; 3WJ_0.0.0_5IB_3FAM RNA construct, FIG. 110): very small effect

CN(CCCN)CCCNC(=O)c1ccccc1 [Ark000039]
Effect in the melting curves (in words) [3]: lack of effect | Effect in the melting curves (in words) [4]: no significant effect | Effect in the melting curves (in words) [5]: lack of effect

N,N′,N″-(9-(1-((2S,4S)-4-azido-1-(3-(4-(fluorosulfonyl)benzoyl)pyrrolidin-2-yl)-2,11-dimethyl-1,12-dioxo-5,8-dioxa-2,11-diazatetradecan-14-yl)-9,10-dihydro-9,10-[1,2]benzenoanthracene-2,7,15-triyl)tris(azanediyl))tris(8-aminooctanamide) [ARK000031]
Temp. Shift [° C.] [1, 6]: +24.1 °C | Melt. Temp. with cmpd [1]: 84.1 °C | Shift melt. Temp. [1]: +24.1 °C
